Measured values from patent US12486253B2, “Therapeutics for the degradation of mutant BRAF” (C4 THERAPEUTICS, INC., priority 2021, dated 2025).

How the values were obtained:
RAF1 (a.k.a CRAF) = RAF1 (a.k.a CRAF) (Homo sapiens, UniProt P04049); experiment: Global proteomics profiling, A375 cells; assay type: cell-based; design: endogenous in cells; host or cells: A375 (A8.2); conditions: 300 nM, 24 hours
Method: Each cell line was treated in duplicate with either DMSO or Compound 157 (final concentration 300 nM) for 24 hours in an incubator at 37° C. with 5% CO2. After the 24-hour incubation, cells were harvested, washed twice with PBS, and snap frozen in liquid nitrogen. Samples were re-suspended in lysis buffer [8 M urea, 50 mM HEPES (pH 8.5), 50 mM NaCl, 1× protease inhibitor cocktail] and lysed by sonication at 4° C. with 85% amplitude in a pulse setting with 30 seconds on and 30 seconds off for a total sonication time of 5 minutes. Lysates were centrifuged at maximum speed for 10 minutes at 4° C. and the supernatant collected, reduced for 1 hour at room temperature with 5 mM TCEP, and the cysteine residues were then alkylated with 15 mM iodoacetamide (room temperature, in dark, 30 minutes). Protein content was extracted by methanol-chloroform precipitation and subsequent ice-cold acetone washes. Protein pellets were resuspended in 8 M urea, 50 mM HEPES (pH 8.5) buffer and protein concentrations were measured by BCA assay. […]
For peptide tandem mass tag (TMT) labeling, 100 μg of peptides per sample was prepared at […] concentration in 200 mM HEPES (pH 8.5), 30% acetonitrile (ACN) and each the specific TMT reagent. […] TMT reporter ion intensities were quantified by extracting the signal-to-noise ratio for each. […]

A375-NRAS^Q61K cells = experiment: CellTiter-Glo growth inhibition assay, A375-NRAS^Q61K cells; assay type: cell-based; conditions: 96 hr, mean of at least n = 3
Method: A375-NRAS^Q61K cells (harboring BRAF homozygous V600E mutation and NRAS homozygous Q61K mutation) were purchased from ATCC. DMEM Medium (without phenol red and supplemented with L-glutamine) was purchased from Corning (Corning, NY, USA). CellTiter-Glo® 2.0 Assay was purchased from Promega (Madison, WI, USA). Cell culture flasks and 384-well microplates were acquired from VWR (Radnor, PA, USA) or Corning (Corning, NY, USA).
A375-NRAS^Q61K cell viability was determined based on quantification of ATP using CellTiter-Glo® 2.0 luminescent Assay kit, which signals the presence of metabolically-active cells. Briefly, test compound was added to 384-well plates at a top concentration of 10 μM with 14 points, half log titration in duplicates. A375-NRAS^Q61K cells were seeded into the 384-well plates in DMEM medium containing 10% FBS at a cell density of 250 cells per well. Cells treated in the absence of the test compound were the negative control, normalized to 100% viability, and cells treated in the absence of CellTiter-Glo® 2.0 were the positive control, normalized to 0% viability. A375 cells were incubated at 37° C. with 5% CO2 for 96 hr. CellTiter-Glo reagent was then added to the cells and Luminescence was acquired on EnVision™ Multilabel Reader (PerkinElmer, Santa Clara, CA, USA).

A375 tumors [1] = experiment: In vivo efficacy in A375 xenografts; design: species or system BALB/c nude mice
A375 tumors [2] = experiment: In vivo efficacy in A375 xenograft tumors; design: species or system BALB/c nude mice; conditions: mice
Method: The efficacy study was conducted in female BALB/c nude mice bearing A375 tumors. Female BALB/c nude mice were inoculated subcutaneously in the right flank with A375 tumor cells (5×10^6) in 0.2 mL of PBS supplemented with Matrigel (at a 1:1 ratio) for tumor development. Tumor volume was measured twice weekly in two dimensions using calipers, and volume (mm^3) was calculated using the formula: V=0.5 a×b^2 where a and b are the long and short diameters of the tumor in mm, respectively. Once the tumors reached an average tumor volume of 246 mm^3 (16 days after implantation), the animals were divided randomly into groups of 6, stratified to result in about equal average tumor sizes in each treatment group and treatment began on Day 0.
All agents were administered to mice bearing A375 tumors orally (PO), daily (QD; encorafenib), twice a day (BID) or three times a day (TID) for Compound 157, for 21 or 35 days. encorafenib was dosed at 35 mg/kg and Compound 157 at 0.1, 0.3, 1, 3 or 10 mg/kg twice a day or 2 mg/kg three times a day. Compound 157 was formulated in 20% PEG400+80% (25% SBECD). Body weight and MTV were measured on a 2× weekly schedule and reported as Mean±SEM.

RAF1 (a.k.a CRAF), sequence (P04049 whole entry): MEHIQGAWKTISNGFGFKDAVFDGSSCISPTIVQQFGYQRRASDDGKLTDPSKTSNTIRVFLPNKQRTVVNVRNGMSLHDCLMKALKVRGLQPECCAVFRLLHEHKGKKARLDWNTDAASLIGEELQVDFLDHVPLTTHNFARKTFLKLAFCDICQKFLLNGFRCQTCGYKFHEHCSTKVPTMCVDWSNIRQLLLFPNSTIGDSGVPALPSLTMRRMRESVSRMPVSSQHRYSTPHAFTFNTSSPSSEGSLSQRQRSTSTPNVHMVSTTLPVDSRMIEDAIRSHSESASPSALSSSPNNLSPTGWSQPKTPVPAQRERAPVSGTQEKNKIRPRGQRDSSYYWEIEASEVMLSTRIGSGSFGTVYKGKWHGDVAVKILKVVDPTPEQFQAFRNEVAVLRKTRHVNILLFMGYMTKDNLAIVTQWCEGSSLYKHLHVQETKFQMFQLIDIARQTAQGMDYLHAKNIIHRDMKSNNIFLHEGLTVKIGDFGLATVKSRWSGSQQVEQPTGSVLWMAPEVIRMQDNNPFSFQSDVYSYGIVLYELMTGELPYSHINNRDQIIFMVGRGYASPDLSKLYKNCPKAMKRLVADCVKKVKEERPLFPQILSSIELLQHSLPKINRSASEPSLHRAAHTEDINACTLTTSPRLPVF

## CCN(C)S(=O)(=O)Nc1ccc(F)c(Oc2ccc3ncn([C@H]4COC5(CCN(C(=O)CC6(O)CCN(c7cc8c(cc7F)c(N7CCC(=O)NC7=O)nn8C)CC6)CC5)C4)c(=O)c3c2)c1C#N [Compound 157, (3R)-3-[6-[2-cyano-3-[[ethyl(methyl)sulfamoyl]amino]-6-fluorophenoxy]-4-oxoquinazolin-3-yl]-8-[2-[1-[3-(2,4-dioxo-1,3-diazinan-1-yl)-5-fluoro-1-methylindazol-6-yl]-4-hydroxypiperidin-4-yl]acetyl]-1-oxa-8-azaspiro[4.5]decane]
RAF1 (a.k.a CRAF)
  RAF1 (CRAF) protein level change: remain largely unchanged
A375-NRAS^Q61K cells
  GI50: 55 nM
A375 tumors [1]; oral delivery
  efficacy compared with encorafenib: more efficacious than a clinically relevant dose of encorafenib
A375 tumors [1]; oral, 10 mg/kg BID
  tumor response: profound tumor regressions
A375 tumors [2]; 1 mg/kg PO BID
  Tumor growth compared to vehicle-treated tumors: potent tumor growth inhibition
A375 tumors [2]; 2 mg/kg PO TID
  Tumor growth compared to vehicle-treated tumors: potent tumor growth inhibition
A375 tumors [2]; 3 mg/kg PO BID
  Tumor growth compared to vehicle-treated tumors: potent tumor growth inhibition
A375 tumors [2]; 10 mg/kg PO BID
  Tumor growth compared to vehicle-treated tumors: robust tumor growth regression
